The subject of test [1] is AP-1. In words: AP-1 luciferase reporter, transient transfection of K562 cells. It is filed as cell-based, human. Conditions: K562, p1×AP1luc, no NIC-1. The text has this: (§1) Plasmids—The pBabe-NIC-1 (pNIC-1) expression vector encoding constitutively active Notch-1 (NIC-1) was described previously (36,37,51). This vector was derived from the pBabe-puro retroviral vector and includes a cDNA sequence encoding amino acids 1759-2556 of human Notch-1 with a Myc tag fused to its carboxyl terminus. Human NIC-1 deletion mutants were generated by PCR using a full-length human Notch-1 expression vector as the template. The Notch-dependent reporter plasmid containing four CBF1 binding sites and an simian virus 40 promoter fused to luciferase (p4×CBF1luc) was described previously (52). The AP-1 reporter plasmid (p1×AP1luc) containing a collagenase promoter fragment (−73/+67) with a single AP-1 binding site in the luciferase reporter vector pGL2-basic (Promega) was described previously (53). The NF-κB reporter plasmid (p3×κBluc) containing three NF-κB binding sites and a minimal promoter fused to luciferase was a kind gift of Dr. Shigeki Miyamoto (University of Wisconsin Medical School). The pBabe-H-Ras(12V) expression vector encoding constitutively active H-Ras was a kind gift of Dr. Charming Der (University of North Carolina-Chapel Hill). This vector was derived from the pBabe-puro retroviral vector and includes a cDNA encoding H-Ras with a Gly to Val mutation at amino acid 12.
(§2) Transient Transfections—K562 cells (5×10^5) were collected by centrifugation at 240×g for 8 min at 4° C. and resuspended in 4 ml of complete IMEM. Plasmid DNAs (1 μg of reporter and 2 μg of effector) were added to 150 μl of IMEM, incubated with Superfect (4 μl/1 μg DNA; Qiagen) for 10 min at room temperature and then added to cells.
(§3) For each transfection, cells were incubated for 26 h after transfection and then treated with TPA (final concentration: 5 nM) or the vehicle (DMSO). After incubating for another 12 or 16 h, cells were harvested and assayed for luciferase activity. Luciferase activity was normalized by the protein content of the lysates, determined by Bradford assay using γ-globulin as a standard.

Test [2] deals with AP-1. In words: AP-1 luciferase reporter, transient transfection of HeLa cells. It is filed as cell-based, human.
Text: as §1, with “The pBabe-H-Ras(12V) expression vector encoding constitutively active H-Ras was a kind gift of Dr. Charming Der (University of North Carolina-Chapel Hill). This vector was derived from the pBabe-puro retroviral vector and includes a cDNA encoding H-Ras with a Gly to Val mutation at amino acid 12.” left out
(§4) For each transfection, cells were incubated for 26 h after transfection and then treated with TPA (final concentration: 5 nM) or the vehicle (DMSO). […] Luciferase activity was normalized by the protein content of the lysates, determined by Bradford assay using γ-globulin as a standard.

Another test concerns MMP1. In words: Northern blotting of MMP1 transcripts in K562-Babe and K562-NIC-1 cells. It is filed as cell-based, human. Conditions: K562-Babe cells, 5 nM TPA 12 h. The procedure: (§5) Stable Transfection—K562 cells were stably transfected by electroporation with a Bio-Rad Gene pulser electroporator. Cells (5×10^6) were washed with ice-cold PBS, resuspended in 0.5 ml of ice-cold PBS, mixed with 5 μg linearized plasmid DNA, and subjected to electroporation (960 microfarad; 220 V) in a 0.4 cm-wide electroporation cuvette (BTX). pBabe and pNIC-1 were linearized with NotI. Cells were then added to 20 ml of complete IMEM, grown for 48 h, and diluted in complete IMEM containing 1.5 μg/ml puromycin (pools of K562-Babe and K562-NIC-1 cells). Stably transfected cells were analyzed for erythroid differentiation as soon as the pools were generated by benzidine staining to reduce the probability of phenotypic changes that may result from prolonged growth.
(§6) Northern Blotting—Total RNA from K562-Babe and K562-NIC-1 cells was extracted with Triazol (Life Technologies, Inc.). Ten μg of RNA per sample was electrophoresed on a 1% agarose, 6.6% formaldehyde gel and then transferred overnight to a Magnacharge nylon membrane (Osmonics). RNA was cross-linked to the membrane by UV irradiation. Membranes were prehybridized for 30 min at 60° C. in ExpressHyb hybridization solution (Clontech). […] Radioactivity was quantitated by PhosphorImager analysis with ImageQuant software (Molecular Dynamics).

Test [3] has as its system AP-1. Nature of the test: EMSA of AP-1 DNA binding activity in nuclear extracts. More on the design: species or system human. The settings on record: K562 cells treated with TPA. Here is the method:
K562-Babe and K562-NIC-1 cells were harvested by centrifugation for 10 min at 150×g. Cells were washed once with ice-cold PBS and resuspended in 1.5 volumes of nuclei lysis buffer (10 mM Tris-HCl, pH 7.5, 10 mM NaCl, 3 mM MgCl2, and 0.2% Nonidet P-40) on ice for 3 min. Nuclei were collected by centrifugation for 5 min at 600×g. Nuclei were washed by gentle resuspension in 1.5 volumes of nuclei wash buffer (10 mM Tris-HCl, pH 7.5, 10 mM NaCl, and 3 mM MgCl2) and then collected by centrifugation for 4 min at 600×g. […] Nuclei were extracted for 45 min at 4° C. with constant mixing. The suspension was then centrifuged for 30 min at 150,000×g. Aliquots of the supernatant were frozen on dry ice and stored at -80° C. The protein concentration as measured by the Bradford assay, with y-globulin as a standard ranged from 4 to 10 mg/ml. DTT (5 mM), phenylmethanesulfonyl fluoride (0.5 mM), leupeptin (20 μg/ml), β-glycerophosphate (800 μM), sodium vanadate (1 mM), and sodium molybdate (50 μM) were included in all buffers. Electrophoretic Mobility Shift Assay-EMSA assays were done as described previously (54). AP-1 DNA binding activity was measured by EMSA with a double-stranded end-labeled oligonucleotide [NT] containing a high affinity AP-1 binding site. […] DNA binding activity was quantitated by PhosphorImager analysis with ImageQuant software (Molecular Dynamics).

The subject of another test is CMV enhancer. Nature of the test: pCMVβgal β-galactosidase reporter, transient transfection of K562 cells. Format: cell-based, human. Conditions: K562, TPA treatment. The procedure:
as §2, §4

A further test has as its system human Aγ globin promoter. Nature of the test: pGL3γLuc reporter, transient transfection of K562 cells. Conditions: K562, TPA treatment. Format: cell-based. Here is the method:
as §2, §3

The subject of a further test is IL-8. Nature of the test: Northern blotting of IL-8 transcripts in K562-Babe and K562-NIC-1 cells. Format: cell-based, human. Conditions: K562-Babe cells, 5 nM TPA 12 h. Here is the method: as §5, §6
A further test concerns NF-κB. In words: NF-κB luciferase reporter (p3×κBluc), transient transfection of K562 cells. Format: cell-based, human.
Text: as §1, with “The pBabe-H-Ras(12V) expression vector encoding constitutively active H-Ras was a kind gift of Dr. Charming Der (University of North Carolina-Chapel Hill). This vector was derived from the pBabe-puro retroviral vector and includes a cDNA encoding H-Ras with a Gly to Val mutation at amino acid 12.” left out
as §4

The structures appear in SMILES notation.

Regarding `CCCCCCCCCCCCCC(=O)O[C@@H]1[C@@H](C)[C@@]2(O)[C@@H](C=C(CO)C[C@]3(O)C(=O)C(C)=C[C@@H]23)[C@@H]2C(C)(C)[C@]12OC(C)=O` [TPA, reference compound], the “induction of AP-1 reporter activity by the activator” value in the test with AP-1 [1] and in the test on AP-1 [2] was “strongly induced” throughout. Also, the “induction of MMP1 transcript levels” value with MMP1 is reported as “strongly induced”. In the test on AP-1 [3], the “induction of AP-1 DNA binding activity” value is recorded as “strongly induced”. Also, the “increase of pCMVβgal activity” value in the test on CMV enhancer is reported as “strongly increased”. Besides, the “increase of pGL3γLuc activity” value in the test on human Aγ globin promoter was about 3 fold. In addition, the “induction of IL-8 transcript levels” value in the test on IL-8 is recorded as “strongly induced”. Further, the “activation of NF-κB reporter gene by the activator” value in the test with NF-κB is listed as “strongly activated”.

(Values after patent publication US20030148954A1, “Agents and methods for modulating activator protein-1-mediated cellular processes” (Wisconsin Alumni Research Foundation, priority 2001, published 2003).)
